The text below walks through data of BindingDB's records for doi:10.1016/j.bmcl.2010.11.084 (Merck Frosst Centre For Therapeutic Research, 2011).

This assay is described as follows: Antagonist activity at CRTH2 in human eosinophil assessed as effect of cellular shape change by EOS assay.
Turning to `CN([C@@H]1CCc2c(CC(=O)O)c3ccc(-c4ccc(F)cc4)nc3n2C1)S(=O)(=O)c1ccc(F)cc1` [(R)-2-(8-(4-fluoro-N-methylphenylsulfonamido)-2-(4-fluorophenyl)-6,7,8,9-tetrahydropyrido[3,2-b]indolizin-5-yl)acetic acid], the IC50 came out at 16 nM.
For `C[C@@H](C(=O)N(C)[C@@H]1CCc2c(CC(=O)O)c3cccnc3n2C1)c1ccc(F)cc1` [2-((R)-8-((R)-2-(4-fluorophenyl)-N-methylpropanamido)-6,7,8,9-tetrahydropyrido[3,2-b]indolizin-5-yl)acetic acid], the IC50 worked out at 1.2 nM.
Regarding `CN([C@@H]1CCc2c(CC(=O)O)c3cccnc3n2C1)S(=O)(=O)c1ccc(F)cc1` [(R)-2-(8-(4-fluoro-N-methylphenylsulfonamido)-6,7,8,9-tetrahydropyrido[3,2-b]indolizin-5-yl)acetic acid], the IC50 is 7 nM.
In the case of `CN(C(=O)C1(c2ccc(F)cc2)CC1)[C@@H]1CCc2c(CC(=O)O)c3cccnc3n2C1` [(R)-2-(8-(1-(4-fluorophenyl)-N-methylcyclopropanecarboxamido)-6,7,8,9-tetrahydropyrido[3,2-b]indolizin-5-yl)acetic acid], the IC50 stood at 3.1 nM.
In the case of `CN(C(=O)C1(c2ccc(F)cc2)CCCC1)[C@@H]1CCc2c(CC(=O)O)c3cccnc3n2C1` [(R)-2-(8-(1-(4-fluorophenyl)-N-methylcyclopentanecarboxamido)-6,7,8,9-tetrahydropyrido[3,2-b]indolizin-5-yl)acetic acid] it was 3.4 nM.
As for `CN(C(=O)C(C)(C)c1ccc(F)cc1)[C@@H]1CCc2c(CC(=O)O)c3cccnc3n2C1` [(R)-2-(8-(2-(4-fluorophenyl)-N,2-dimethylpropanamido)-6,7,8,9-tetrahydropyrido[3,2-b]indolizin-5-yl)acetic acid], the IC50 was 2.3 nM.
As to `CN(C(=O)C1(c2ccc(F)cc2)CCC1)[C@@H]1CCc2c(CC(=O)O)c3cccnc3n2C1` [(R)-2-(8-(1-(4-fluorophenyl)-N-methylcyclobutanecarboxamido)-6,7,8,9-tetrahydropyrido[3,2-b]indolizin-5-yl)acetic acid], the IC50 came to 1.2 nM.
Regarding `CN(C(=O)C1(c2ccc(F)cc2)CC1(C)C)[C@@H]1CCc2c(CC(=O)O)c3cccnc3n2C1` (stereo partly drawn) [2-((8R)-8-(1-(4-fluorophenyl)-N,2,2-trimethylcyclopropanecarboxamido)-6,7,8,9-tetrahydropyrido[3,2-b]indolizin-5-yl)acetic acid], the IC50 came out at 2.4 nM.

Usually IC50 stands for the concentration that inhibits the measured activity by half.
